Holding throughout (format): biochemical
Test [1] concerns the target T1, human Yes1 enzyme (Homo sapiens, UniProt P07947).
T1 construct: made in house
Briefly: Yes1 enzyme inhibitory activity (time-resolved fluorometry, biotinylated peptide phosphorylation). The following applies: read-out: YES_IC50. Put shortly:
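Inhibition was expressed against a compound-free control to give IC50, using TR-FRET read-out (Eu-cryptate anti-pTyr antibody, streptavidin-XL665).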

Test [2] deals with T2, human Src enzyme (Homo sapiens, UniProt P12931).
T2 construct: purchased Carna Biosciences, Inc. 08-173
T2 sequence (P12931 whole entry): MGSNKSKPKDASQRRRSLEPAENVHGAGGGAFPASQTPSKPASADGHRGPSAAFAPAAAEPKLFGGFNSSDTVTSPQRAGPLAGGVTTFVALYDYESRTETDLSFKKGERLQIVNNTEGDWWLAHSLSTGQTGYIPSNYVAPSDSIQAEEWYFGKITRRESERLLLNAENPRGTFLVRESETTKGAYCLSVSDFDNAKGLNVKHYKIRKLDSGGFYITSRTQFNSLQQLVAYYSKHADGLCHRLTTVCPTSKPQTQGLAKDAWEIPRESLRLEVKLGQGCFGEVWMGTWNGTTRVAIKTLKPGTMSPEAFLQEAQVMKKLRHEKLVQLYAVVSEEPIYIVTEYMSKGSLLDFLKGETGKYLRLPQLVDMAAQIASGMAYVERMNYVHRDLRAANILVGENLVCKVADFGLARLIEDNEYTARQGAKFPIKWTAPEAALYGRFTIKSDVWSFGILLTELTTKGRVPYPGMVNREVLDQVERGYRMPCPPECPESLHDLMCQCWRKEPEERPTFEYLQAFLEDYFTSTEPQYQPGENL
As to the kind of experiment: Src enzyme inhibitory activity (time-resolved fluorometry, biotinylated peptide phosphorylation). The conditions noted are these: read-out: SRC_IC50. Put shortly: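 Compounds were tested for blocking tyrosine phosphorylation of a biotinylated peptide substrate by recombinant human Src. Phosphorylated product was quantified by time-resolved fluorometry using europium cryptate and XL665 conjugates, and IC50 was calculated against the compound-free control.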

In test [3] the target is T3, human Lck enzyme (Homo sapiens, UniProt P06239).
T3 construct: purchased Carna Biosciences, Inc. 08-170
T3 sequence (P06239 whole entry): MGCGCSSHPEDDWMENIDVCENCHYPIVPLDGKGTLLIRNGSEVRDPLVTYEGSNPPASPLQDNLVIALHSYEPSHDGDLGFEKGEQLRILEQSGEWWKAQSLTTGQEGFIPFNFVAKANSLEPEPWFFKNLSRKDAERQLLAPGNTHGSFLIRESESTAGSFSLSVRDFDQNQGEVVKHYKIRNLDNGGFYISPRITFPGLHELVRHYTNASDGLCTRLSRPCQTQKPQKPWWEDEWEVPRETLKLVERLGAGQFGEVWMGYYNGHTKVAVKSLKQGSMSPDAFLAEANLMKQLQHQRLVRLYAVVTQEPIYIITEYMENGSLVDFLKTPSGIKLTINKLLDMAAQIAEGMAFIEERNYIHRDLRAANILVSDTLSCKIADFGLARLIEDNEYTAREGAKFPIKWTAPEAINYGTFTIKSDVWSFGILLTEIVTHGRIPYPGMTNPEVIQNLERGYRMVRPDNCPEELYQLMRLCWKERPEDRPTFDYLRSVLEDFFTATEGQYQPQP
Briefly: Lck enzyme inhibitory activity (time-resolved fluorometry, biotinylated peptide phosphorylation). The following applies: read-out: LCK_IC50. Put shortly: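 Readout pairs a europium cryptate-labelled anti-phosphotyrosine antibody with XL665-streptavidin, measured by time-resolved fluorescence. IC50 derived from percent inhibition against untreated controls.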

Where [4] appears, read: biotinylated peptide phosphorylation.

Structures are written as SMILES. Like-named read-outs stand apart in the source and are kept apart here.

T1 sequence (P07947 whole entry): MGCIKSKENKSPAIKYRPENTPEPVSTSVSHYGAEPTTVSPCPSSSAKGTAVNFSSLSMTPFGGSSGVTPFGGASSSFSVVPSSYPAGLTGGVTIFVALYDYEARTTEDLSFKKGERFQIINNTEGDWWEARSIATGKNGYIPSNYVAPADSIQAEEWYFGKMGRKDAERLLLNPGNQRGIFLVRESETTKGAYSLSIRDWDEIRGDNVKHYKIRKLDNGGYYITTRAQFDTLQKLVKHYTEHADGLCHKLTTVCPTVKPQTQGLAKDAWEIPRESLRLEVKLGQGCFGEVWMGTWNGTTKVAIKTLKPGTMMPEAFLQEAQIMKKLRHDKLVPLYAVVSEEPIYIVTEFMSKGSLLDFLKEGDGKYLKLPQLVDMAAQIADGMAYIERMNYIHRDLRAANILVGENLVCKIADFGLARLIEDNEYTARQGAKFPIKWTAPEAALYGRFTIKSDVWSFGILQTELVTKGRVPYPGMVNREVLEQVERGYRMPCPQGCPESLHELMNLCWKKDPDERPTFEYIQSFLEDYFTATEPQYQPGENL

With `Cc1cc2cc(C(=O)c3cnn(-c4cnc(Oc5c(F)cccc5F)cc4C)c3N)[nH]c2cc1NS(=O)(=O)CC(=O)N1CCOCC1` [Example 4-10-010, N-[2-[5-amino-1-[6-(2,6-difluorophenoxy)-4-methylpyridin-3-yl]pyrazole-4-carbonyl]-5-methyl-1H-indol-6-yl]-2-morpholin-4-yl-2-oxoethanesulfonamide], the values for the IC50 in test [1] (setting [4]), in test [2] (setting [4]) and in test [3] (setting [4]) were 1.3 nM, 26 nM and 7.1 nM, respectively.
For the compound `Cc1cc(Oc2ccccc2F)ccc1-n1ncc(C(=O)c2cc3cc(OCC(F)F)c(N4C(=O)[C@@H]5C[C@H](NS(=O)(=O)c6ccc7ccccc7c6)CN5C4=O)cc3[nH]2)c1N` [Example 5-1-276, N-[(6S,7aS)-2-[2-[5-amino-1-[4-(2-fluorophenoxy)-2-methylphenyl]pyrazole-4-carbonyl]-5-(2,2-difluoroethoxy)-1H-indol-6-yl]-1,3-dioxo-5,6,7,7a-tetrahydropyrrolo[1,2-c]imidazol-6-yl]naphthalene-2-sulfonamide], the IC50 is 2.2 nM in test [1], 87 nM in test [2] and 35 nM in test [3].
Taken in the same sequence, the figures for `Cc1cc(Oc2c(F)cccc2F)ncc1-n1ncc(C(=O)c2cc3cc(F)c(N4CCOC4=O)cc3[nH]2)c1N` [Example 5-1-097, 3-[2-[5-amino-1-[6-(2,6-difluorophenoxy)-4-methylpyridin-3-yl]pyrazole-4-carbonyl]-5-fluoro-1H-indol-6-yl]-1,3-oxazolidin-2-one] were 1.1 nM, 8.7 nM and 1.3 nM.
Regarding `Cc1cc(Oc2c(F)cccc2F)ncc1-n1ncc(C(=O)c2cc3cc(OCC(F)F)c(N4C(=O)NC5(CCN(C6COC6)CC5)C4=O)cc3[nH]2)c1N` [Example 5-1-350, 3-[2-[5-amino-1-[6-(2,6-difluorophenoxy)-4-methylpyridin-3-yl]pyrazole-4-carbonyl]-5-(2,2-difluoroethoxy)-1H-indol-6-yl]-8-(oxetan-3-yl)-1,3,8-triazaspiro[4.5]decane-2,4-dione], the IC50 worked out at 0.88 nM in test [1], 13 nM in test [2] and 3.3 nM in test [3].
As to `Cc1cc(Oc2ccccc2F)ccc1-n1ncc(C(=O)c2cc3cc(F)c(N4C(=O)NC5(CCCC5)C4=O)cc3[nH]2)c1N` [Example 5-1-438, 3-[2-[5-amino-1-[4-(2-fluorophenoxy)-2-methylphenyl]pyrazolo-4-carbonyl]-5-fluoro-1H-indol-6-yl]-1,3-diazaspiro[4.4]nonane-2,4-dione], the IC50 in test [1] (setting [4]) was 1.9 nM; in test [2] (setting [4]), 120 nM; in test [3] (setting [4]) it was 15 nM.
Turning to `Cc1cc(Oc2c(F)cccc2F)ncc1-n1ncc(C(=O)c2cc3cc(OCC(F)F)c(NS(=O)(=O)C4CCCC4)cc3[nH]2)c1N` [Example 5-1-318, N-[2-[5-amino-1-[6-(2,6-difluorophenoxy)-4-methylpyridin-3-yl]pyrazole-4-carbonyl]-5-(2,2-difluoroethoxy)-1H-indol-6-yl] cyclopentanesulfonamide], the values for the IC50 in test [1], in test [2] and in test [3] were 10 nM, 350 nM and 120 nM, respectively.
Consider `CS(=O)(=O)Nc1cc2[nH]c(C(=O)c3cnn(-c4c(F)cc(Oc5ccccc5F)cc4F)c3N)cc2cc1F` [Example 5-1-022, N-[2-[5-amino-1-[2,6-difluoro-4-(2-fluorophenoxy)phenyl]pyrazole-4-carbonyl]-5-fluoro-1H-indol-6-yl]methanesulfonamide], for which the IC50 came out at 2 nM in test [1], 62 nM in test [2] and 10 nM in test [3].
As to `Cc1cc2cc(C(=O)c3cnn(-c4cnc(Oc5c(F)cccc5F)cc4C)c3N)[nH]c2cc1NS(=O)(=O)c1cccc(C#N)c1` [Example 5-1-555, N-[2-[5-amino-1-[6-(2,6-difluorophenoxy)-4-methylpyridin-3-yl]pyrazole-4-carbonyl]-5-methyl-1H-indol-6-yl]-3-cyanobenzenesulfonamide], the IC50 in test [1] (setting [4]) was found to be 14 nM; in test [2] (setting [4]), 1200 nM; in test [3] (setting [4]), 150 nM.
On to `Cc1cc2cc(C(=O)c3cnn(-c4cnc(Oc5ccccc5)cc4C)c3N)[nH]c2cc1NS(C)(=O)=O` [Example 5-1-109, N-[2-[5-amino-1-(4-methyl-6-phenoxypyridin-3-yl)pyrazole-4-carbonyl]-5-methyl-1H-indol-6-yl]methanesulfonamide], for which the IC50 amounted to 0.7 nM in test [1], 37 nM in test [2] and 1.4 nM in test [3].
For `COc1cccc(S(=O)(=O)Nc2cc3[nH]c(C(=O)c4cnn(-c5cnc(Oc6c(F)cccc6F)cc5C)c4N)cc3cc2OCC(F)F)c1` [Example 5-1-327, N-[2-[5-amino-1-[6-(2,6-difluorophenoxy)-4-methylpyridin-3-yl]pyrazole-4-carbonyl]-5-(2,2-difluoroethoxy)-1H-indol-6-yl]-3-methoxybenzenesulfonamide], in that order: 7.3 nM, 920 nM and 270 nM.
For `Cc1cc(Oc2ccccc2F)ccc1-n1ncc(C(=O)c2cc3cc(C(C)C)c(N)cc3[nH]2)c1N` [Example 5-1-266, [5-amino-1-[4-(2-fluorophenoxy)-2-methylphenyl]pyrazol-4-yl]-(6-amino-5-propan-2-yl-1H-indol-2-yl)methanone], in that order: 2.1 nM, 11 nM and 11 nM.
Taken in the same sequence, the figures for `Cc1cc(Oc2c(F)cccc2F)ncc1-n1ncc(C(=O)c2cc3cc(OCC(F)F)c(C4CCOCC4)cc3[nH]2)c1N` [Example 5-1-259, [5-amino-1-[6-(2,6-difluorophenoxy)-4-methylpyridin-3-yl]pyrazol-4-yl]-[5-(2,2-difluoroethoxy)-6-(oxan-4-yl)-1H-indol-2-yl] methanone] were 7.5 nM, 50 nM and 25 nM.
As for `Cc1cc(Oc2ccccc2Cl)ncc1-n1ncc(C(=O)c2cc3cc(F)c(NS(=O)(=O)C4CC4)cc3[nH]2)c1N` [Example 4-7-015, N-[2-[5-amino-1-[6-(2-chlorophenoxy)-4-methylpyridin-3-yl]pyrazole-4-carbonyl]-5-fluoro-1H-indol-6-yl]cyclopropanesulfonamide], the IC50 in test [1] (setting [4]) was determined as 0.92 nM; in test [2] (setting [4]), 110 nM; in test [3] (setting [4]) it was 17 nM.
Turning to `Cc1cc(-n2ncc(C(=O)c3cc4cc(OC5CCN(C6CCC6)CC5)c(NS(C)(=O)=O)cc4[nH]3)c2N)ccc1Oc1ccccc1F` [Example 5-1-231, N-[2-[5-amino-1-[4-(2-fluorophenoxy)-3-methylphenyl]pyrazole-4-carbonyl]-5-(1-cyclobutylpiperidin-4-yl)oxy-1H-indol-6-yl] methanesulfonamide], the values for the IC50 in test [1], in test [2] and in test [3] were 1.7 nM, 610 nM and 72 nM, respectively.
Taken in the same sequence, the figures for `CC(C)N1CCC(c2cc3[nH]c(C(=O)c4cnn(-c5ccc(Oc6cccc(F)c6)cc5F)c4N)cc3cc2F)CC1` [Example 5-1-006, [5-amino-1-[2-fluoro-4-(3-fluorophenoxy)phenyl]pyrazol-4-yl]-[5-fluoro-6-(1-propan-2-ylpiperidin-4-yl)-1H-indol-2-yl]methanone] were 0.73 nM, 56 nM and 6 nM.
As to `Cc1cc(Oc2ccccc2F)ncc1-n1ncc(C(=O)c2cc3cc(OC(F)F)c(N4CCCC4=O)cc3[nH]2)c1N` [Example 4-25-014, 1-[2-[5-amino-1-[6-(2-fluorophenoxy)-4-methylpyridin-3-yl]pyrazole-4-carbonyl]-5-(difluoromethoxy)-1H-indol-6-yl]pyrrolidin-2-one], the IC50 in test [1] (setting [4]) came out at 1.1 nM; in test [2] (setting [4]), 26 nM; in test [3] (setting [4]), 2.2 nM.
Taken in the same sequence, the figures for `Cc1cc(Oc2ccccc2F)ncc1-n1ncc(C(=O)c2cc3cc(OC(F)F)c(NC4CN(S(C)(=O)=O)C4)cc3[nH]2)c1N` [Example 4-23-025, [5-amino-1-[6-(2-fluorophenoxy)-4-methylpyridin-3-yl]pyrazol-4-yl]-[5-(difluoromethoxy)-6-[(1-methylsulfonylazetidin-3-yl)amino]-1H-indol-2-yl]methanone] were 1.8 nM, 30 nM and 5.6 nM.
For `Cc1cc(Oc2ccccc2F)ccc1-n1ncc(C(=O)c2cc3cc(F)c(NS(=O)(=O)CC(=O)N4CCOCC4)cc3[nH]2)c1N` [Example 4-10-004, N-[2-[5-amino-1-[4-(2-fluorophenoxy)-2-methylphenyl]pyrazole-4-carbonyl]-5-fluoro-1H-indol-6-yl]-2-morpholin-4-yl-2-oxoethanesulfonamide], in that order: 0.53 nM, 12 nM and 8.3 nM.
For `Cc1cc2cc(C(=O)c3cnn(-c4cnc(Oc5ccccc5F)cc4C)c3N)[nH]c2cc1NS(=O)(=O)c1cccc(F)c1` [Example 5-1-500, N-[2-[5-amino-1-[6-(2-fluorophenoxy)-4-methylpyridin-3-yl]pyrazole-4-carbonyl]-5-methyl-1H-indol-6-yl]-3-fluorobenzenesulfonamide], in that order: 5.7 nM, 750 nM and 200 nM.
As for `Cc1cc(Oc2c(F)cccc2F)ncc1-n1ncc(C(=O)c2cc3cc(OC4CCN(C5CS(=O)(=O)C5)CC4)c(-c4ccccc4Cl)cc3[nH]2)c1N` [Example 5-1-290, [5-amino-1-[6-(2,6-difluorophenoxy)-4-methylpyridin-3-yl]pyrazol-4-yl]-[6-(2-chlorophenyl)-5-[1-(1,1-dioxothietan-3-yl)piperidin-4-yl]oxy-1H-indol-2-yl]methanone], the IC50 in test [1] came out at 2.1 nM; in test [2], 46 nM; in test [3] it was 30 nM.

These data come from patent publication US10479780B2, “Aminopyrazole derivatives” (Chugai Seiyaku Kabushiki Kaisha, priority 2015, dated 2019).
